Data: US10793568B2, “Hormone receptor modulators for treating metabolic conditions and disorders” (ARDELYX, INC., priority 2016, dated 2020)
Where two headings read alike, the source gives them in different places.

Tests used:
[1] = molecular target: ligand binding domain of human FXR (Homo sapiens (Human), UniProt Q96RI1); assay: FXR ligand binding assay (LanthaScreen TR-FRET, SRC2-2 peptide recruitment); details: for pEC50: -log EC50, concentration required to produce 50% activation; for Emax: read-out: % Efficacy
Method: The affinity of FXR ligands for the ligand binding domain of FXR was determined using a commercially available human FXR ligand binding assay (LanthaScreen, Thermofisher Cat # PV4833). […] Binding of FXR ligands to the FXR ligand binding domain promotes binding of the fluorescein-labelled SRC2-2 peptide. This causes a FRET signal between the terbium-labelled anti-GST antibody and the fluorescein-labelled SRC peptide which are both bound to the FXR ligand binding domain.
Test compounds are dissolved in DMSO and a 3-fold serial dilution series is generated, then further diluted into assay buffer. The compounds are mixed with 5 nM GST-tagged FXR ligand binding domain, 5 nM Tb-labelled anti-GST antibody and 500 nM fluorescein-labelled SRC2-2 peptide in a pH7.4 buffer. The reaction is incubated at room temperature for 1 hour, then the FRET signal is measured as the ratio of the 520 nm/495 nm emission following excitation at 340 nm. The change in FRET signal is plotted against the test article concentration and fit to a 3-parameter logistical equation. The concentration required to produce 50% activation is expressed as pEC50 (−log EC50), and the extent of activation is expressed relative to GW4064 as % activation.

[2] = molecular target: human Farnesoid X receptor ligand-binding domain/Gal4 DNA binding domain chimera (Homo sapiens (Human), UniProt Q96RI1); assay: Cell-based assay of FXR activation (FXR-UAS-bla HEK 293T beta-lactamase reporter); details: cellular FXR beta-lactamase reporter assay; for Emax: HEK-293T, extent of activation relative to GW4064, read-out: % Efficacy; for EC50: FXR-UAS-bla HEK 293T cells, 16 h, pEC50 = -log EC50
Method: FXR activation was measured using a cell line and procedure obtained from Life Technologies (Cat # K1691). FXR-UAS-bla HEK 293T cells contain a human Farnesoid X receptor ligand-binding domain/Gal4 DNA binding domain chimera stably integrated into the CellSensor® UAS-bla HEK 293T cell line. The CellSensor® UAS-bla HEK 293T contains a beta-lactamase reporter gene under control of a UAS response element stably integrated into HEK 293T cells. Activation of FXR by bound ligands results in transcriptional activation of the beta-lactamase reporter gene, which is detected via assay of beta-lactamase activity.
Cells are harvested and diluted into assay medium containing phenol red-free DMEM supplemented with 2% Charcoal-stripped FBS, pyruvate, non-essential amino acids. Cells are then transferred to a 384 well assay plate. Test compounds are dissolved in DMSO and a 3-fold serial dilution series is generated, then further diluted into assay medium. Compounds in assay medium are added to cells in the 384 well plate and allowed to incubate 16 h at 37 C in the presence of 5% CO2.
A FRET-based […] is loaded into cells as its acetomethoxy ester. Intracellular esterases liberate free CCF4, a cephalosporin core linking 7-hydroxycoumarin to fluorescein. In the presence of beta-lactamase activity produced in the presence of FXR agonists, cleavage of CCF4 spatially separates the two dyes and disrupts FRET, so that exciting the coumarin at 409 nm now produces a blue fluorescence signal at 447 nm. The change in FRET signal is plotted against the test compound concentration and fit to a 3-parameter logistical equation. The concentration required to produce 50% activation is expressed as pEC50 (−log EC50), and the extent of activation is expressed relative to GW4064 as % activation.

[3] = extent of activation relative to GW4064

human Farnesoid X receptor ligand-binding domain/Gal4 DNA binding domain chimera, sequence (Q96RI1 262-486, stated change not applied): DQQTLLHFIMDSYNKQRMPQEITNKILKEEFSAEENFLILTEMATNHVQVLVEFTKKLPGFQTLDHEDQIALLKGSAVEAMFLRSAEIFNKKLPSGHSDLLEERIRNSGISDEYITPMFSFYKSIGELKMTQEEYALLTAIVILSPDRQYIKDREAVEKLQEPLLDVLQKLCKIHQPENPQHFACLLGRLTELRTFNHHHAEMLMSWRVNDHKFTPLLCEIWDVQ
human Farnesoid X receptor ligand-binding domain/Gal4 DNA binding domain chimera, sequence (P04386 1-147 partner): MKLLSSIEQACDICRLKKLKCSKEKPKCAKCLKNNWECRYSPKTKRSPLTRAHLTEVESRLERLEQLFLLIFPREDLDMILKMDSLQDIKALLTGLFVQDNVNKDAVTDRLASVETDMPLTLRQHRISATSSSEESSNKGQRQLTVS
ligand binding domain of human FXR, sequence (Q96RI1 262-486): as the sequence (Q96RI1 262-486, stated change not applied) above

SMILES	pEC50 [1]	Emax [1, 3] [%]	Emax [2] [%]	EC50 [2] [nM]	Emax [1] [%]
O=C(NS(=O)(=O)C1CCOC1)c1ccc(N2C(=O)[C@@H]3C[C@H]2C[C@H]3OCc2c(-c3c(Cl)cccc3Cl)noc2C2CC2)cc1 (stereo partly drawn) [Compound I-340, 4-((1S,4R,5R)-5-((5-cyclopropyl-3-(2,6-dichlorophenyl)isoxazol-4-yl)methoxy)-3-oxo-2-azabicyclo[2.2.1]heptan-2-yl)-N-((tetrahydrofuran-3-yl)sulfonyl)benzamide]	8.8	182	110	7.94	
O=C(O)c1ccc(N2C[C@@H]3C[C@H]2C[C@H]3OCc2c(-c3ccccc3C(F)(F)F)noc2C2CC2)c(F)c1 [Compound I-121, 4-[(1S,4S,5R)-5-({5-cyclopropyl-3-[2-(trifluoromethyl)phenyl]-1,2-oxazol-4-yl}methoxy)-2-azabicyclo[2.2.1]heptan-2-yl]-3-fluorobenzoic Acid]		174	107	1.26	
O=C(O)c1cc(C2CC3(CCOCC3)C2)c2nc(N3C(=O)[C@@H]4C[C@H]3C[C@H]4OCc3c(-c4c(Cl)cccc4Cl)noc3C3CC3)sc2c1 [Compound I-300, 2-((1S,4R,5R)-5-((5-cyclopropyl-3-(2,6-dichlorophenyl)isoxazol-4-yl)methoxy)-3-oxo-2-azabicyclo[2.2.1]heptan-2-yl)-4-(7-oxaspiro[3.5]nonan-2-yl)benzo[d]thiazole-6-carboxylic acid]	1	82	117	100	
O=C(O)c1ccc(C2CC2)cc1N1C(=O)[C@@H]2C[C@H]1C[C@H]2OCc1c(-c2c(Cl)cccc2Cl)noc1C1CC1 [Compound I-320, 4-cyclopropyl-2-[(1S,4R,5R)-5-{[5-cyclopropyl-3-(2,6-dichlorophenyl)-1,2-oxazol-4-yl]methoxy}-3-oxo-2-azabicyclo[2.2.1]heptan-2-yl]benzoic Acid]	7.5	114	110	20	
O=C(NS(=O)(=O)C1CC1)c1ccc(N2C[C@@H]3C[C@H]2C[C@H]3OCc2c(-c3c(Cl)cccc3Cl)noc2C2(F)CC2)nc1 [Compound I-209, N-(cyclopropanesulfonyl)-6-[(1S,4S,5R)-5-{[3-(2,6-dichlorophenyl)-5-(1-fluorocyclopropyl)-1,2-oxazol-4-yl]methoxy}-2-azabicyclo[2.2.1]heptan-2-yl]pyridine-3-carboxamide]	7.8	160	104	15.8	
O=C(O)c1cc(C2CC2)c2nc(N3C[C@@H]4C[C@H]3C[C@H]4OC(=O)c3c(-c4c(Cl)cccc4Cl)noc3C3CC3)sc2c1 [Compound I-4, 4-cyclopropyl-2-[(1S,4S,5R)-5-[5-cyclopropyl-3-(2,6-dichlorophenyl)-1,2-oxazole-4-carbonyloxy]-2-azabicyclo[2.2.1]heptan-2-yl]-1,3-benzothiazole-6-carboxylic acid]	7.3	166	112	3.16	
O=C(NS(=O)(=O)CCC1CCOC1)c1ccc(N2C(=O)[C@@H]3C[C@H]2C[C@H]3OCc2c(-c3c(Cl)cccc3Cl)noc2C2CC2)cc1F (stereo partly drawn) [Compound I-336, 4-((1S,4R,5R)-5-((5-cyclopropyl-3-(2,6-dichlorophenyl)isoxazol-4-yl)methoxy)-3-oxo-2-azabicyclo[2.2.1]heptan-2-yl)-2-fluoro-N-((2-(tetrahydrofuran-3-yl)ethyl)sulfonyl)benzamide]	8.6	182	125	2.51	
Cc1cccc(C)c1-c1noc(C2CC2)c1CO[C@@H]1C[C@@H]2C[C@H]1C(=O)N2c1ccc(C(=O)O)cc1 [Compound I-308, 4-[(1S,4R,5R)-5-{[5-cyclopropyl-3-(2,6-dimethylphenyl)-1,2-oxazol-4-yl]methoxy}-3-oxo-2-azabicyclo[2.2.1]heptan-2-yl]benzoic Acid]	7.6	150	99	3.98	
O=C(NS(=O)(=O)C1CCCCC1)c1ccc(N2C[C@@H]3C[C@H]2C[C@H]3OCc2c(-c3c(Cl)cccc3Cl)noc2C2CC2)cc1 [Compound I-181, N-(cyclohexanesulfonyl)-4-[(1S,4S,5R)-5-{[5-cyclopropyl-3-(2,6-dichlorophenyl)-1,2-oxazol-4-yl]methoxy}-2-azabicyclo[2.2.1]heptan-2-yl]benzamide]	8.8		110	0.0631	166
CCCS(=O)(=O)NC(=O)c1ccc(N2C[C@@H]3C[C@H]2C[C@H]3OCc2c(-c3ccccc3C(F)(F)F)noc2C2CC2)c(F)c1 [Compound I-200, 4-((1S,4S,5R)-5-((5-cyclopropyl-3-(2-(trifluoromethyl)phenyl)isoxazol-4-yl)methoxy)-2-azabicyclo[2.2.1]heptan-2-yl)-3-fluoro-N-(propylsulfonyl)benzamide]	8.6	215	110	0.251	
O=C(NS(=O)(=O)C1CC1)c1ccc([N+]2([O-])C[C@@H]3C[C@H]2C[C@H]3OCc2c(-c3c(Cl)cccc3Cl)noc2C2CC2)cc1 (stereo partly drawn) [Compound I-234, (1S,4S,5R)-2-{4-[(cyclopropanesulfonyl)carbamoyl]phenyl}-5-{[5-cyclopropyl-3-(2,6-dichlorophenyl)-1,2-oxazol-4-yl]methoxy}-2-azabicyclo[2.2.1]heptan-2-ium-2-olate]	8.1	146	102	1.58	
O=C(O)c1ccc(N2C[C@@H]3C[C@H]2C[C@H]3OCc2c(-c3c(Cl)cccc3Cl)noc2C2(F)CC2)c(F)c1 [Compound I-57, 4-[(1S,4S,5R)-5-{[3-(2,6-dichlorophenyl)-5-(1-fluorocyclopropyl)-1,2-oxazol-4-yl]methoxy}-2-azabicyclo[2.2.1]heptan-2-yl]-3-fluorobenzoic Acid]	7.9	146	109	1	
O=C(O)c1cc(C(F)(F)F)c2nc(N3C[C@@H]4C[C@H]3C[C@H]4OC(=O)c3c(-c4c(Cl)cccc4Cl)noc3C3CC3)sc2c1 [Compound I-5, 2-[(1S,4S,5R)-5-[5-cyclopropyl-3-(2,6-dichlorophenyl)-1,2-oxazole-4-carbonyloxy]-2-azabicyclo[2.2.1]heptan-2-yl]-4-(trifluoromethyl)-1,3-benzothiazole-6-carboxylic acid]	7.2	139	102	39.8	
O=C(O)CCc1ccc(N2C(=O)[C@@H]3C[C@H]2C[C@H]3OCc2c(-c3c(Cl)cccc3Cl)noc2C2CC2)cc1F [Compound I-305, 3-{4-[(1S,4R,5R)-5-{[5-cyclopropyl-3-(2,6-dichlorophenyl)-1,2-oxazol-4-yl]methoxy}-3-oxo-2-azabicyclo[2.2.1]heptan-2-yl]-2-fluorophenyl}propanoic Acid]	7.5	121	98	3.16	
O=C(O)C1(c2ccc(N3C[C@@H]4C[C@H]3C[C@H]4OCc3c(-c4c(Cl)cccc4Cl)noc3C3CC3)cc2)CC1 [Compound I-149, 1-{4-[(1S,4S,5R)-5-{[5-cyclopropyl-3-(2,6-dichlorophenyl)-1,2-oxazol-4-yl]methoxy}-2-azabicyclo[2.2.1]heptan-2-yl]phenyl}cyclopropane-1-carboxylic Acid]	8.2	106	101	63.1	
O=C(O[C@@H]1C[C@@H]2C[C@H]1CN2c1ccc(-c2nn[nH]n2)cc1)c1c(-c2c(Cl)cccc2Cl)noc1C1CC1 [Compound I-50, (1S,4S,5R)-2-[4-(2H-1,2,3,4-tetrazol-5-yl)phenyl]-2-azabicyclo[2.2.1]heptan-5-yl 5-cyclopropyl-3-(2,6-dichlorophenyl)-1,2-oxazole-4-carboxylate]	6.8	184	109	15.8	
